This note sets out measurements from US10597382B2, “Tetrazole containing apoptosis signal-regulating kinase 1 inhibitors and methods of use thereof” (ENANTA PHARMACEUTICALS, INC., priority 2017, dated 2020).

For this assay, the target named is ASK1 kinase (Homo sapiens (Human), UniProt Q99683). The assay can be described thus: HTRF KinEASE assay of ASK1 kinase activity inhibition. It counts as biochemical. Conditions: HTRF KinEASE-STK TR-FRET; 5 nM ASK1, 1 uM STK3 peptide substrate, 100 uM ATP, 3 hours. The procedure: • The ability (IC50) of compounds to inhibit ASK1 kinase activity was determined by HTRF® KinEASE™ Assay System
Sequence of ASK1 kinase (Q99683 whole entry): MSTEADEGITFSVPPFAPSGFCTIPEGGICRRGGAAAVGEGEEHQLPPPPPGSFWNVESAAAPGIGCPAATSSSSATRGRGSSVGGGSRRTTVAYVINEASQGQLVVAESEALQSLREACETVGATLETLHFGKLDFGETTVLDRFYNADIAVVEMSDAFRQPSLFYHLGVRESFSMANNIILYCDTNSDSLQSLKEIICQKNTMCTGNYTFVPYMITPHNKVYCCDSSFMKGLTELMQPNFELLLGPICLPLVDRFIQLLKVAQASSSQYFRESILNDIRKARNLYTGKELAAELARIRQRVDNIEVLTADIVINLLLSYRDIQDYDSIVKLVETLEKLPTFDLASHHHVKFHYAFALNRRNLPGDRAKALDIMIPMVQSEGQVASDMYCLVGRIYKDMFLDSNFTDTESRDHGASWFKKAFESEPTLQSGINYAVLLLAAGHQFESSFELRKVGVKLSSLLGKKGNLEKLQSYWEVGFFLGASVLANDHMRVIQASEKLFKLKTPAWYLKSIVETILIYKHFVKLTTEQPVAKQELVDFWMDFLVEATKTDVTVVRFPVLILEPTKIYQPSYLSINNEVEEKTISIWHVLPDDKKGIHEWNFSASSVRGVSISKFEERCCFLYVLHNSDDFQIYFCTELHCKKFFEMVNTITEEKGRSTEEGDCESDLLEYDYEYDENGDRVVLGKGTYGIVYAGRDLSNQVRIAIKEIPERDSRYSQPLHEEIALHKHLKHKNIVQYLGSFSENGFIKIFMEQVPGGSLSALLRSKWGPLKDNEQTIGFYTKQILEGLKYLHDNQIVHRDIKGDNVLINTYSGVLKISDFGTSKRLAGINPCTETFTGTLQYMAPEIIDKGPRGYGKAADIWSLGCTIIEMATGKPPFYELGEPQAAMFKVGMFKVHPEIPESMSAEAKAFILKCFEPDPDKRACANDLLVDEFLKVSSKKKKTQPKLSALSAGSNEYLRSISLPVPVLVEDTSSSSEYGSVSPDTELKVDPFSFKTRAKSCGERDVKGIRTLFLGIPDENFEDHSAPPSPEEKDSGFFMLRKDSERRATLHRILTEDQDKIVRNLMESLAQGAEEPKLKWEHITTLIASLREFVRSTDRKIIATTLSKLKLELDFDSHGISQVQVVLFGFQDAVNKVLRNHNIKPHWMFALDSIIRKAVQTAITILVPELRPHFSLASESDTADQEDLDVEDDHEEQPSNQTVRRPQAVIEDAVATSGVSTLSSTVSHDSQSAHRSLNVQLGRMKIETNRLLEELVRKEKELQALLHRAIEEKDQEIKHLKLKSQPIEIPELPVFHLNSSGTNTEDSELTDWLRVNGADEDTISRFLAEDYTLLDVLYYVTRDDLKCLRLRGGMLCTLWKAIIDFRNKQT
ASK1 kinase was from Thermofisher (Catalogue # PV4011), ATP was from Sigma (Catalogue # A7699), HTRF® KinEASE™ Assay System was obtained from Cisbio (Bedford, Mass.). ½ Area plate was from Perkin Elmer (Catalogue #6005560). HTRF® KinEASE™-STK is a generic method for measuring serine/threonine kinase activities using time-resolved fluorescence resonance energy transfer (TR-FRET) immunoassay. The IC50 value for each compound was determined in the presence of compound (various concentration from 0 to 10 uM) and a fixed amount of ATP, peptide substrates. Test compound, 1 uM STK3 peptide substrate, 5 nM of ASK1 kinase are incubated with kinase reaction buffer, containing 50 mM HEPES pH 7.5, 0.01% BRIJ-35, 10 mM MgCl2, and 1 mM EGTA for 30 minutes, then 100 uM ATP is added to start kinase reaction and incubated for 3 hours. The STK3-antibody labeled with Eu^3+-Cryptate and 125 nM streptavidin-XL665 are mixed in a single addition with stop reagents provided by the Cisbio kit used to stop the kinase reaction. Fluorescence is detected using Envision Multilabeled 2014 reader from PerkinElmer. The Fluorescence is measured at 615 nm (Cryptate) and 665 nm (XL665) and a ratio of 665 nm/615 nm is calculated for each well. The resulting TR-FRET is proportional to the phosphorylation level. Staurosporine was used as the positive control. IC50 was determined by Xlfit 5.3.
By using above method, the inhibition of ASK1 was tested for the compound of formula (I). IC50 ranges are as follows: A<1 nM; 1 nM<[…]B<10 nM; 10 nM<C<100 nM; 100 nM<D<1 μM; E>1 μM.
For orientation: Time-resolved FRET reads energy transfer from a long-lived donor to a nearby acceptor.
The IC50 is the point on the concentration scale where inhibition reaches its midpoint. Low readings indicate higher potency, high ones lower potency. For `CC(C)n1nnnc1-c1cccc(N2Cc3ccccc3C2=O)n1` [Example 7], the concentration for half-maximal inhibition (IC50) is 10 to 100 nM.

The compound `CC(=O)OC[C@@H](C)n1nnnc1-c1cccc(N2Cc3ccc(-n4cnc(C5CC5)c4)cc3C2=O)n1` [Example 3, I-2-(5-(6-(6-(4-cyclopropyl-1H-imidazol-1-yl)-1-oxoisoindolin-2-yl)pyridine-2-yl)-1H-tetrazol-1-yl)propyl acetate] came in with an IC50 of 100 to 1000 nM.

Compound `Cc1ccncc1-c1ccc2c(c1)C(=O)N(c1cccc(-n3nnnc3C(C)C)n1)C2` [Example 12] showed an IC50 of 100 to 1000 nM.

In the case of `CC(C)c1nnnn1-c1cccc(N2Cc3ccc(N4CCOCC4)cc3C2=O)n1` [Example 8], the IC50 lay in the range of 100 to 1000 nM.

Turning to `CC(C)n1nnnc1-c1cccc(N2Cc3ccc(-c4cncc(C5CC5)c4)cc3C2=O)n1` [Example 15], the IC50 fell in the range of 10 to 100 nM.

As for `C[C@H](CO)n1nnnc1-c1cccc(N2Cc3ccc(-n4cnc(C5CC5)c4)cc3C2=O)n1` [Example 4, I-6-(4-cyclopropyl-1H-imidazol-1-yl)-2-(6-(1-(1-hydroxypropan-2-yl)-1H-tetrazol-5-yl)pyridine-2-yl)isoindolin-1-one], the IC50 fell in the range of 10 to 100 nM.

For `CC(C)n1nnnc1-c1cccc(N2Cc3ccc(-c4ccc(C5CC5)nc4)cc3C2=O)n1` [Example 16], the IC50 is 10 to 100 nM.

For the compound `CC(=O)OC[C@@H](C)n1nnnc1-c1cccc(N2Cc3ccc(OC(C)C)cc3C2=O)n1` [Example 5, I-2-(5-(6-(6-isopropoxy-1-oxoisoindolin-2-yl)pyridine-2-yl)-1H-tetrazol-1-yl)propyl acetate], the IC50 was above 1000 nM.

Consider `Cc1cc2c(cc1OC(C)C)C(=O)N(c1cccc(-c3nnnn3[C@H](C)CO)n1)C2` [Example 14], for which the IC50 lay in the range of 1 to 10 nM.

Take `CC(C)c1nnnn1-c1cccc(N2Cc3ccc(-c4cccnc4)cc3C2=O)n1` [Example 9]: the IC50 is 10 to 100 nM.

Take `CC(C)c1nnnn1-c1cccc(N2Cc3ccc(-n4cnc(C5CC5)c4)cc3C2=O)n1` [Example 1, 6-(4-cyclopropyl-1H-imidazol-1-yl)-2-(6-(5-isopropyl-1H-tetrazol-1-yl)pyridine-2-yl)isoindolin-1-one]: the concentration for half-maximal inhibition (IC50) was in the range of 1 to 10 nM.

With `Cc1ncccc1-c1ccc2c(c1)C(=O)N(c1cccc(-n3nnnc3C(C)C)n1)C2` [Example 11], the IC50 was in the range of 100 to 1000 nM.

The compound `CC(C)n1nnnc1-c1cccc(N2Cc3ccc(-n4cnc(C5CC5)c4)cc3C2=O)n1` [Example 2, 6-(4-cyclopropyl-1H-imidazol-1-yl)-2-(6-(1-isopropyl-1H-tetrazol-5-yl)pyridine-2-yl)isoindolin-1-one] registered an IC50 of 10 to 100 nM.

`CCN1CCN(c2ccc3c(c2)C(=O)N(c2cccc(-n4nnnc4C(C)C)n2)C3)CC1=O` [Example 10] showed an IC50 of 10 to 100 nM.

`CC(C)n1nnnc1-c1cccc(N2Cc3ccc(-c4cccnc4)cc3C2=O)n1` [Example 13]: the IC50 fell in the range of 1 to 10 nM.

For the compound `CC(C)Oc1ccc2c(c1)C(=O)N(c1cccc(-c3nnnn3[C@H](C)CO)n1)C2` [Example 6, I-2-(6-(1-(1-hydroxypropan-2-yl)-1H-tetrazol-5-yl)pyridine-2-yl)-6-isopropoxyisoindolin-1-one], the IC50 is 1 to 10 nM.
